From article PMC3242765, “Inhibitors of Alphavirus Entry and Replication Identified with a Stable Chikungunya Replicon Cell Line and Virus-Based Assays” (PLoS ONE, 2011) come the findings set out here.

For one assay, the system named is CHIKV replicon. Description: microbe, parasite or virus in culture. It is filed as cell-based, Chikungunya virus (CHIKV).

Several values for one entry are separate records, joined by “and”; a condition that tells them apart may be missing. Equal entries are not always repeated. Structures can show the parent of a compound that is named as a salt.

Take `CC(Cc1ccc(O)cc1)NCC(O)c1cc(O)cc(O)c1` (stereo not drawn) [Fenoterol hydrobromide]: in the assay on CHIKV replicon, the “CHIKV replicon % left” value is reported as 88.4%. Also, the “SFV replication % left (surviving fraction, remaining percentage of SFV replication)” value with SFV-Rluc is reported as 106.6%.
Taken in the same sequence, the figures for `COc1cc2ccc(=O)oc2c(O)c1OC` [Fraxidin] were 104.3% and 77.8%.
For `O=C1Nc2ccc(Cl)cc2C(c2ccccc2)=NC1O` (stereo not drawn) [Oxazepam], in that order: 80.3% and 79.1%.
Taken in the same sequence, the figures for `O=c1c(-c2ccc(O)cc2)coc2cc(O)cc(O)c12` [Genistein] were 62.1% and 45.6%.
As to `Cc1ccnc(NS(=O)(=O)c2ccc(N)cc2)n1` [Sulfamerazine], in the assay on CHIKV replicon, the “CHIKV replicon % left” value was found to be 91.1%. Moreover, in the assay with SFV-Rluc, the “SFV replication % left (surviving fraction, remaining percentage of SFV replication)” value came out at 83.8%.
Taken in the same sequence, the figures for `CCN(CC)c1ccc2cc(-c3nc4ccccc4[nH]3)c(=O)oc2c1` [Coumarin 7] were 51.8% and 37.3%.
Take `Cc1c(N(C)CS(=O)(=O)[O-])c(=O)n(-c2ccccc2)n1C.[Na+]` [Metamizol sodium]: the “CHIKV replicon % left” value with CHIKV replicon came out at 105.1%. For the same molecule, the “SFV replication % left (surviving fraction, remaining percentage of SFV replication)” value with SFV-Rluc was 86.0%.
As for `CC[C@H]1CN2CCc3cc(OC)c(OC)cc3[C@@H]2C[C@@H]1C[C@H]1NCCc2cc(OC)c(OC)cc21` [Emetine dihydrochloride], the “CHIKV replicon % left” value in the assay with CHIKV replicon is listed as 80.9%. Moreover, the “SFV replication % left (surviving fraction, remaining percentage of SFV replication)” value with SFV-Rluc was 63.1%.
Taken in the same sequence, the figures for `Oc1cccc(O)c1` [Resorcinol] were 102.9% and 67.1%.
Taken in the same sequence, the figures for Tannic acid were 82.0% and 41.8%.
Consider `CCCCCCCCOC(=O)c1cc(O)c(O)c(O)c1` [Octyl gallate], for which the “CHIKV replicon % left” value in the assay with CHIKV replicon is 94.1%. Further, the “SFV replication % left (surviving fraction, remaining percentage of SFV replication)” value in the assay with SFV-Rluc is listed as 134.4%.
Regarding `O=C1c2c(O)cccc2Cc2cccc(O)c21` [1,8-Dihydroxyanthrone], the “CHIKV replicon % left” value in the assay on CHIKV replicon was 40.9%. The “SFV replication % left (surviving fraction, remaining percentage of SFV replication)” value with SFV-Rluc is reported as 27.2%.
For `CNC(C)(C)Cc1ccccc1` [Mephentermine sulfate], in that order: 70.1% and 81.8%.
Taken in the same sequence, the figures for `CC(C)(C)NC[C@H](O)COc1cccc2c1CCCC2=O` [I-Bunolol] were 105.4% and 59.6%.
Taken in the same sequence, the figures for `CCNCC(O)c1cccc(O)c1` (stereo not drawn) [Etilefrin] were 87.1% and 116.8%.
For `CC(CN(C)C)CN1c2ccccc2Sc2ccccc21.CC(CN(C)C)CN1c2ccccc2Sc2ccccc21.O=C(O)C(O)C(O)C(=O)O` (stereo not drawn) [Trimeprazine tartrate], the “CHIKV replicon % left” value with CHIKV replicon was determined as 100.5%. In addition, the “SFV replication % left (surviving fraction, remaining percentage of SFV replication)” value in the assay on SFV-Rluc came out at 120.4%.
For `Cc1cc(=O)oc2cc(O)c(O)cc12` [6,7-Dihydroxy-4-methylcoumarin], in that order: 95.4% and 131.1%.
Regarding `CN1C(=O)CN=C(c2ccc(Cl)cc2)c2cc(Cl)ccc21` [4'-Chlorodiazepam], the “CHIKV replicon % left” value in the assay on CHIKV replicon is listed as 105.5%. Further, the “SFV replication % left (surviving fraction, remaining percentage of SFV replication)” value in the assay on SFV-Rluc amounted to 64.0%.
For `C=CC/C(=N/OS(=O)(=O)[O-])S[C@@H]1O[C@H](CO)[C@@H](O)[C@H](O)[C@H]1O.O.[K+]` [Sinigrin monohydrate], the “CHIKV replicon % left” value with CHIKV replicon was determined as 99.2%. Also, in the assay on SFV-Rluc, the “SFV replication % left (surviving fraction, remaining percentage of SFV replication)” value came out at 47.6%.
With `Cc1nnc(NS(=O)(=O)c2ccc(N)cc2)s1` [Sulfamethylthiadiazole], the “CHIKV replicon % left” value in the assay on CHIKV replicon was found to be 92.1%. The “SFV replication % left (surviving fraction, remaining percentage of SFV replication)” value in the assay with SFV-Rluc is given as 89.6%.
For `O=C1NC2NC(=O)NC2N1` (stereo not drawn) [Acetyleneurea [acetylene carbamide]], in that order: 105.4% and 55.2%.
In the case of `O=C(O)c1ccccc1C(=O)Nc1ccc(S(=O)(=O)Nc2nccs2)cc1` [Phthalylsulfathiazole], in the assay with CHIKV replicon, the “CHIKV replicon % left” value is listed as 100.5%. The “SFV replication % left (surviving fraction, remaining percentage of SFV replication)” value in the assay on SFV-Rluc is listed as 113.7%.
Taken in the same sequence, the figures for `O=C(O)c1ccccc1O` [Salicylic acid] were 78.2% and 69.1%.
For `CC(=O)Nc1ccc(OCC(O)CNC(C)C)cc1` (stereo not drawn) [Practolol], in that order: 61.5% and 117.3%.
For `O=C(Oc1ccccc1C(=O)O)c1ccccc1O` [Salicylsalicylic acid], in that order: 88.9% and 127.4%.
For `CC1=CC(=O)c2ccccc2C1=O` [Menadione [2-Methyl-1,4-naphtoquinone]], in the assay on CHIKV replicon, the “CHIKV replicon % left” value is 31.1%. The “SFV replication % left (surviving fraction, remaining percentage of SFV replication)” value in the assay on SFV-Rluc turned out to be 28.3%.
Taken in the same sequence, the figures for `CC(C(=O)O)c1cccc(C(=O)O)c1` (stereo not drawn) [2-(3-Carboxyphenyl)propionic acid] were 94.3% and 105.7%.
Taken in the same sequence, the figures for `NCC(O)c1ccc(O)cc1` (stereo not drawn) [Octopamine hydrochloride] were 88.4% and 102.1%.
Taken in the same sequence, the figures for `O=c1cc(O)c2ccccc2o1` [4-Hydroxycoumarin] were 95.4% and 100.2%.
Take `O=c1c(-c2ccc(O)cc2)coc2cc(O)ccc12` [Daidzein]: the “CHIKV replicon % left” value in the assay on CHIKV replicon is recorded as 104.4%. In addition, the “SFV replication % left (surviving fraction, remaining percentage of SFV replication)” value in the assay on SFV-Rluc is recorded as 76.6%.
Taken in the same sequence, the figures for `COc1ccc(OC)c(C(O)C(C)N)c1` (stereo not drawn) [Methoxamine hydrochloride] were 48.2% and 98.4%.
Take `COc1ccc2oc(=O)cc(C)c2c1` [6-Methoxy-4-methylcoumarin]: in the assay with CHIKV replicon, the “CHIKV replicon % left” value is on record as 85.4%. Besides, the “SFV replication % left (surviving fraction, remaining percentage of SFV replication)” value in the assay on SFV-Rluc is on record as 66.6%.
Taken in the same sequence, the figures for `COc1cc(/C=C/C(=O)O)cc(OC)c1O` [Sinapic acid] were 51.4% and 22.0%.
For `CC(C)NCC(O)c1ccc(O)c(O)c1.Cl` (stereo not drawn), in the assay with CHIKV replicon, the “CHIKV replicon % left” value came to 99.3%. Further, in the assay on SFV-Rluc, the “SFV replication % left (surviving fraction, remaining percentage of SFV replication)” value is given as 112.5%.
For `NC(=O)N1c2ccccc2C=Cc2ccccc21` [Carbamazepine], in that order: 100.2% and 57.2%.
Taken in the same sequence, the figures for `C#C[C@]1(O)CC[C@H]2[C@@H]3CCC4=CC(=O)CC[C@@H]4[C@H]3CC[C@@]21C` [Norethindrone] were 97.1% and 107.8%.
For the molecule `CC(=O)Nc1ccc(O)cc1` [Acetaminophen [paracetamol]], the “CHIKV replicon % left” value with CHIKV replicon stood at 85.2%. Further, the “SFV replication % left (surviving fraction, remaining percentage of SFV replication)” value with SFV-Rluc came to 63.5%.
With `NC[C@@H]1O[C@H](O[C@H]2[C@@H](O)[C@H](O[C@@H]3[C@@H](O)[C@H](N)C[C@H](N)[C@H]3O[C@H]3O[C@H](CN)[C@@H](O)[C@H](O)[C@H]3N)O[C@@H]2CO)[C@H](N)[C@@H](O)[C@@H]1O.O=S(=O)(O)O` [Neomycin sulfate], in the assay with CHIKV replicon, the “CHIKV replicon % left” value came to 100.4%. Also, the “SFV replication % left (surviving fraction, remaining percentage of SFV replication)” value in the assay with SFV-Rluc is given as 99.6%.
Taken in the same sequence, the figures for `CNCCC=C1c2ccccc2CCc2ccccc21` [Nortriptyline hydrochloride] were 29.1% and 5.3%.
As for `CC(CN1c2ccccc2Sc2ccccc21)[N+](C)(C)CCO` (stereo not drawn) [N-Hydroxyethylpromethazine chloride], the “CHIKV replicon % left” value with CHIKV replicon amounted to 85.9%. The “SFV replication % left (surviving fraction, remaining percentage of SFV replication)” value in the assay on SFV-Rluc worked out at 102.2%.
On to `CCOc1ccc(NC(C)=O)cc1` [Phenacetin], for which the “CHIKV replicon % left” value in the assay on CHIKV replicon is 100.8% and 94.3%. Besides, the “SFV replication % left (surviving fraction, remaining percentage of SFV replication)” value in the assay on SFV-Rluc is 71.8% and 80.6%.
For the molecule `Nc1ccc(Cl)cc1C(=O)c1ccccc1F` [2-Amino-5-chloro-2'-fluorobenzophenone], the “CHIKV replicon % left” value in the assay with CHIKV replicon is recorded as 82.2%. In the assay with SFV-Rluc, the “SFV replication % left (surviving fraction, remaining percentage of SFV replication)” value turned out to be 167.4%.
Turning to `CN1C(=O)CN=C(c2ccccc2)c2cc(Cl)ccc21` [Diazepam], in the assay with CHIKV replicon, the “CHIKV replicon % left” value worked out at 84.0%. Besides, in the assay on SFV-Rluc, the “SFV replication % left (surviving fraction, remaining percentage of SFV replication)” value amounted to 73.6%.
Consider `N[C@@H](Cc1ccc(O)c(O)c1)C(=O)O.N[C@@H](Cc1ccc(O)c(O)c1)C(=O)O`, for which the “CHIKV replicon % left” value in the assay on CHIKV replicon amounted to 54.8%. Further, the “SFV replication % left (surviving fraction, remaining percentage of SFV replication)” value in the assay on SFV-Rluc is given as 43.6%.
Take `COc1cc(O)c2c(=O)c(O)c(-c3ccc(O)c(O)c3)oc2c1` [Rhamnetin]: the “CHIKV replicon % left” value in the assay on CHIKV replicon was determined as 94.7%. Also, the “SFV replication % left (surviving fraction, remaining percentage of SFV replication)” value in the assay on SFV-Rluc was 119.1%.
Turning to `CC(=O)CC(c1ccccc1)c1c(O)c2ccccc2oc1=O` (stereo not drawn) [3-(a-Acetonylbenzyl)-4-hydroxycoumarin], the “CHIKV replicon % left” value in the assay on CHIKV replicon came out at 57.2%. In addition, in the assay with SFV-Rluc, the “SFV replication % left (surviving fraction, remaining percentage of SFV replication)” value was 79.5%.
Take `Oc1ccccc1O` [Catechol]: the “CHIKV replicon % left” value with CHIKV replicon worked out at 77.7%. In the assay on SFV-Rluc, the “SFV replication % left (surviving fraction, remaining percentage of SFV replication)” value amounted to 58.4%.
Turning to `O=c1c(O)c(-c2ccc(O)c(O)c2)oc2c(O[C@@H]3O[C@H](CO)[C@@H](O)[C@H](O)[C@H]3O)c(O)cc(O)c12` [Gossypin], in the assay with CHIKV replicon, the “CHIKV replicon % left” value is reported as 104.3%. The “SFV replication % left (surviving fraction, remaining percentage of SFV replication)” value in the assay on SFV-Rluc came out at 105.8%.
